Patent US20110294843A1, “ADMINISTRATION SCHEME OF POLAR OPIOID METABOLITES FOR POST-OPERATIVE PAIN MANAGEMENT” (PAION UK Limited, priority 2008, published 2011)
Like-named read-outs stand apart in the source and are kept apart here.

How the values were obtained:
[1] = Pharmacokinetics of M6G at single and multiple intravenous doses in healthy volunteers; type: in vivo, human; conditions: for half-life / clearance / AUC(0-inf) / Cmax / MRT inf / Vd: both sexes, human, plasma, iv; for half-life: read-out: t½ (converted); for AUC(0-inf): read-out: AUC0-∞; for Cmax: read-out: Cmax; for MRT inf: read-out: MRT0-∞; for Vd: read-out: Vss; for CLss / MRT24-∞: multiple dose, Dose 5-15 mg
Procedure: Healthy male and female subjects were divided into two groups (A and B) with 12 in each. Group A received three single intravenous infusions of M6G over 5 mins at levels of 15, 30 and 45 mg/70 kg in random order, having taken 50 mg of naloxone orally 24 hrs beforehand. There was a seven-day wash-out period between each dose. Blood samples were taken pre-dose and at the following time-points: 3, 5, 15, 30 mins and 1, 2, 3, 4, 6, 12 and 24 hrs after the start of the infusion. Group, B received five, 15 mg/70 kg, intravenous infusions of M6G, each over five minutes, at 6-hourly intervals, having taken a 50 mg oral dose of naloxone 24 hrs before the first infusion. Blood samples were taken before each of the 5 doses, and at 3, 5, 15, 30 mins and at 1, 2, 3 and 4 hrs after the initiation of the 1st and 5th infusions and at 6 hrs after the 5th dose. Vital signs (supine blood pressure, pulse, respiratory rate and oral temperature), respiration rate, pulse oximetry and adverse events were monitored during the study. Plasma levels of M6G were measured using HPLC/ms/ms.

[2] = prior experimental human and clinical studies; cited from earlier work
[3] = literature, cited from earlier work
[4] = 15 mg/70 kg, single 5 min iv infusion 15 mg, Mean
[5] = 15 mg/70 kg, single 5 min iv infusion 15 mg, Median
[6] = 30 mg/70 kg, single 5 min iv infusion 30 mg, Geometric Mean
[7] = 30 mg/70 kg, single 5 min iv infusion 30 mg, Mean
[8] = 30 mg/70 kg, single 5 min iv infusion 30 mg, Median
[9] = 45 mg/70 kg, single 5 min iv infusion 45 mg, Geometric Mean
[10] = 45 mg/70 kg, single 5 min iv infusion 45 mg, Mean
[11] = 45 mg/70 kg, single 5 min iv infusion 45 mg, Median

Structure (SMILES): CN1CC[C@]23c4c5ccc(O)c4O[C@H]2[C@@H](OC2OC(C(=O)O)C(O)C(O)C2O)C=CC3[C@H]1C5 (stereo partly drawn) [M6G, (5α,6α)-7,8-Didehydro-4,5-epoxy-3-hydroxy-17-methylmorphinan-β-yl-β-D-glucopyranosiduronic acid]
- half-life ([1]; 15 mg/70 kg, single 5 min iv infusion 15 mg, Geometric Mean): 87.7 min
- clearance [1, 4]: 133 mL/min
- AUC(0-inf) [1, 4]: 1930 ng·h/mL
- Cmax [1, 4]: 1860 ng/mL
- MRT inf [1, 4]: 1.65 h
- Vd [1, 4]: 13 L
- half-life [1, 4]: 88.7 min
- clearance [1, 5]: 133 mL/min
- AUC(0-inf) [1, 5]: 1880 ng·h/mL
- Cmax [1, 5]: 1650 ng/mL
- MRT inf [1, 5]: 1.69 h
- Vd [1, 5]: 12.6 L
- half-life [1, 5]: 93.6 min
- clearance [1, 6]: 121 mL/min
- AUC(0-inf) [1, 6]: 4140 ng·h/mL
- Cmax [1, 6]: 3870 ng/mL
- MRT inf [1, 6]: 1.76 h
- Vd [1, 6]: 12.7 L
- half-life [1, 6]: 102 min
- clearance [1, 7]: 122 mL/min
- AUC(0-inf) [1, 7]: 4190 ng·h/mL
- Cmax [1, 7]: 3980 ng/mL
- MRT inf [1, 7]: 1.77 h
- Vd [1, 7]: 12.8 L
- half-life [1, 7]: 103 min
- clearance [1, 8]: 125 mL/min
- AUC(0-inf) [1, 8]: 4000 ng·h/mL
- Cmax [1, 8]: 4110 ng/mL
- MRT inf [1, 8]: 1.81 h
- Vd [1, 8]: 12.2 L
- half-life [1, 8]: 109 min
- clearance [1, 9]: 128 mL/min
- AUC(0-inf) [1, 9]: 5850 ng·h/mL
- Cmax [1, 9]: 5720 ng/mL
- MRT inf [1, 9]: 1.66 h
- Vd [1, 9]: 12.8 L
- half-life [1, 9]: 97.4 min
- clearance [1, 10]: 130 mL/min
- AUC(0-inf) [1, 10]: 5910 ng·h/mL
- Cmax [1, 10]: 5860 ng/mL
- MRT inf [1, 10]: 1.68 h
- Vd [1, 10]: 12.9 L
- half-life [1, 10]: 98.5 min
- clearance [1, 11]: 136 mL/min
- AUC(0-inf) [1, 11]: 5500 ng·h/mL
- Cmax [1, 11]: 5860 ng/mL
- MRT inf [1, 11]: 1.78 h
- Vd [1, 11]: 13.1 L
- half-life [1, 11]: 102 min
- accumulation, AUC0-∞ ([1]; five 15 mg iv infusions at 6 hour intervals): 2.9%
- safety ([1]; healthy volunteers, single and multiple iv doses): No clinically significant safety issues
- CLss ([1]; Geometric Mean): 7261 mL/h
- MRT24-∞ ([1]; Geometric Mean): 1.63 h
- CLss ([1]; Mean): 7303 mL/h
- MRT24-∞ ([1]; Mean): 1.65 h
- CLss ([1]; Median): 7173 mL/h
- MRT24-∞ ([1]; Median): 1.64 h
- potency ratio morphine and M6G [2]: 3 to 1
- Log P ([3]; Avdeef et al. 1996): −0.76
- Log P ([3]; Gaillard et al. 1994, calculated from lipophilicity potential): −1.3
- Log P ([3]; Wu et al. 1997): −2.95
